Columns and labels:
ER+ breast cancer = conditions: both in vitro and in vivo; cited from earlier work
ERα expression = conditions: ER+ breast cancer cells highly expressing KAT6A; cited from earlier work
human KAT6A = human KAT6A (Homo sapiens (Human), UniProt Q92794); assay: KAT6 enzyme activity assay (AlphaScreen method), KAT6A; type: biochemical; conditions: inhibition of the enzyme human KAT6A
Source text: Test Example 1: KAT6 Enzyme Activity Assay (AlphaScreen Method)
I. Reagents and instrument • 1. KAT6A (customized by Chempartner) • 2. Ovalbumin (Sigma-Aldrich, A5378-5G) • 3. 2 M Tris-HCl solution, pH 7.8, sterile (Sangon, B548140-0500) • 4. 5 M NaCl solution (Sangon, B548121-0100) • 5. EDTA (0.5 M), pH 8.0, RNase-free (Thermofisher, AM9260G) • 6. Tween-20 (Sangon, A100777-0500) • 7. DTT, 1 M (Invitrogen, P2325) • 8. Acetyl coenzyme A (Ac-CoA, CAYMAN, Cat. No. 16160) • 9. Recombinant histone H3.1 biotinylated (human) (Active Motif 31696) • 10. 384-well plate, light gray (Perkin Elmer, Cat. No. 6005350) • 11. Anacardic acid (MCE, Cat. No. HY—N2020) • 12. AlphaScreen streptavidin donor beads, 5 mg (PerkinElmer, 6760002) • 13. AlphaScreen protein A acceptor beads, 5 mg (PerkinElmer, 6760137M) • 14. Acetylated-lysine antibody #9441 (CST 9441S) • 15. PHERA star microplate reader (BMG labtech) • II. Experimental method
a. 1× assay buffer: 100 mM Tris-HCl, pH 7.8; 15 mM NaCl; 1 mM EDTA; 0.01% tween-20; 1 mM DTT; 0.01% m/v ovalbumin.
b. KAT enzyme solution: 1.25 nM (final concentration), prepared in 1× assay buffer.
c. Mixed substrate of Ac-CoA and H3: a mixed substrate of 1000 nM (final concentration) Ac-CoA and 55 nM (final concentration) H3, prepared in 1× assay buffer.
d. Compounds: initial concentration of 100 μM, 3-fold dilution, 10 gradient concentrations. All compound concentrations were diluted 83-fold with 1× assay buffer for later use.
e. Assay reagent: 8 ng/μL (final concentration) AlphaScreen protein A acceptor beads, 8 ng/μL AlphaScreen streptavidin donor beads, 1:1500 diluted acetylated-lysine antibody, and 100 μM anacardic acid; prepared in 1× assay buffer.
2. Experimental Procedure
a. The prepared enzyme solution was added to a 384-well plate at 3 μL/well, and 3 μL of 1× assay buffer was added to each well in columns 23 and 24 (Min).
b. 3 μL of compound solution was added to each well, and 3 μL of buffer was added to each Min well; 3 μL of DMSO solution was added to each well in columns 1 and 2 (Max) as controls. The plate was centrifuged, shaken for 2 min, and incubated at room temperature for 15 min.
c. The mixed substrate of Ac-CoA and H3 was added at 6 μL/well, and the plate was centrifuged, shaken for 2 min, and incubated at room temperature for 20 min.
d. The assay reagent was added at 6 μL/well, and the plate was centrifuged, shaken for 2 min, and incubated in the dark at room temperature for 120 min.
e. Plate reading was performed on the microplate reader, and AlphaScreen counts were recorded.
f. Plotting was performed using the Graphpad software, and the IC50 values of the compounds were calculated.

ZR-75-1 = ZR-75-1 proliferation assay (CellTiter-Glo, day 14); type: cell-based; conditions: Homo sapiens, 336 h, CTG assay day 14
Source text: Test Example 4: ZR-75-1 Proliferation Assay
I. Reagents and Instruments
• 1. ZR-75-1 (ATCC CRL1500) • 2. 1640 medium (Gibco, 22400-089) • 3. 0.25% trypsin-EDTA (1×) (Gibco, 25200-072) • 4. Penicillin-streptomycin (Gibco, 15140-122) • 5. DPBS (1×) (Gibco, 14190-144) • 6. FBS (Gibco, 10091148) • 7. Assay plate, 96-well, black with clear bottom (Corning, 3603) • 8. 96-well non-treated round-bottom plate (JET BIOFIL, TCP-002-096) • 9. CellTiter-Glo buffer (Promega, G756B) • 10. CellTiter-Glo substrate (Promega, G755B) • 11. Automatic cell counter (Countstar, IC1000) • 12. Thermostatic incubator (Thermo, 1160) • 13. PHERAstar FS (BMG labtech, PHERAstar FS)
a. The state of cells was observed under a microscope to make sure that the cell confluence was about 90%.
b. The cell supernatant was discarded. The cells were rinsed with DPBS once, and the DPBS was removed. The cells were digested with a proper amount of trypsin and left to stand at 37° C. for 5 min.
c. The digestion was stopped with an equal volume of 1640 medium containing 10% FBS, and the cell suspension was collected and centrifuged at 300 g for 3 min. The cells were suspended in a proper amount of fresh medium.
d. The resulting cell suspension was collected and cell counting was performed.
e. The cell suspension was diluted to 5×10^4/mL, 50 μL/well with 1640 medium containing 10% FBS. Each well contained 2500 ZR-75-1 cells.
f. The cell culture plates were incubated overnight in a 37° C., 5% carbon dioxide incubator.
2. Compound Addition (Day 1)
a. Each compound was serially diluted in DMSO to 9 concentration points (initial concentration of 100 μM, 3-fold dilution; the highest concentration of each compound may be adjusted depending on its IC50). For example, in a 96-well non-treated round-bottom plate, 3 μL of compound was serially diluted in 6 μL of DMSO.
b. Each concentration point of each compound was diluted 500-fold in the corresponding volume of 1640 medium.
c. 50 μL of diluted compound solution was added to the cell supernatant (50 μL/well) in each cell plate.
d. After the addition, the cell plates were incubated in a 37° C., 5% carbon dioxide incubator.
3. The Cells were Re-Digested and Plated, and the Compounds were Added (Day 7).
a. Six days after the addition, the compound-containing medium was discarded. Then the cells were rinsed with DPBS (150 μL/well), and the DPBS was immediately pipetted off.
b. The cells were digested with 50 μL of trypsin and left to stand at 37° C. for 3 min, and then the digestion was stopped with 1640 medium containing 10% FBS (150 μL/well).
c. The cells were well mixed using a pipette and re-plated at a ratio of 1:8; that is, 25 μL of cell suspension was pipetted into a new 96-well plate (25 μL of 1640 medium containing 10% FBS had been added to the new plate in advance).
d. Compound solution preparation and addition (50 μL/well) were performed according to steps a to c in 2.
e. After the addition, the cell plates were incubated in a 37° C., 5% carbon dioxide incubator.
a. CellTiter-Glo buffer and lyophilized CellTiter-Glo substrate were equilibrated to room temperature before use and were well mixed to prepare a 100-mL CellTiter-Glo reagent (or a prepared CellTiter-Glo reagent was removed from a −20° C. freezer and equilibrated to room temperature).
b. The plates to be tested were removed from the incubator and equilibrated to room temperature, and the CellTiter-Glo reagent was added at 50 μL/well.
c. The plates were shaken for 2 min so that the cells were completely lysed.
d. After the plates were left to stand at room temperature for 28 min and signals were stable, the plates were tested on PHERAstar FS.

[1] = Pharmacokinetic evaluation in SD rats; type: in vivo; conditions: both sexes, rat, plasma, po, i.g., 2.0 mg/kg
Method: Test Example 5: Pharmacokinetic Evaluation
SD rats were used as test animals. After intragastric (i.g.) administration of the compounds of the present disclosure to SD rats, the plasma concentrations at different time points were measured by the LC/MS/MS method. The pharmacokinetic behavior of the compounds of the present disclosure in SD rats was studied, and their pharmacokinetic profiles were evaluated.
Compound 2, compound 7, compound 21, and compound 23.
16 SD rats, of which half were male and half female, were evenly divided into 4 groups. The rats were provided by Vital River Laboratory Animal Technology Co., Ltd. The rats were fasted overnight and intragastrically administered the compounds.
2.3. Compound Solution Preparation
A certain amount of test compound was weighed out and dissolved in 5% DMSO+5% tween 80+90% normal saline to prepare a 0.2 mg/mL colorless clear solution.
The dose administered was 2.0 mg/kg, and the volume was 10.0 mL/kg.
0.1 mL blood samples were collected from the orbit before the administration and 0.25 h, 0.5 h, 1.0 h, 2.0 h, 4.0 h, 6.0 h, 8.0 h, 11.0 h and 24.0 h post-dose. The blood samples were placed into EDTA-K2 anticoagulation tubes and centrifuged at 10,000 rpm for 1 min (4° C.), and plasma was separated within 1 h and stored at −20° C. before analysis. The process from the blood collection to the centrifugation was performed in an ice bath. Access to food was given 2 h post-dose.
Measurement of plasma concentrations in SD rats after compounds were administered in different concentrations: 25 μL samples of the SD rat plasma collected at various time points post-dose were taken, and to each of the samples was added 25 μL of camptothecin (an internal standard for compound 2, 100 ng/mL) or 50 μL of tolbutamide (an internal standard for compound 7, 100 ng/mL) or 50 μL of verapamil (an internal standard for compounds 21 and 23, 100 ng/mL). Protein was precipitated with 200 μL of acetonitrile, and after 5 min of vortexing, the mixtures were centrifuged at 3700 rpm for 10 min. 120 µL of supernatant was taken and vortexed with 30 μL of water for 5 min, and a 5 μL sample was taken for LC/MS/MS analysis.

Chain of human KAT6A (Q92794 whole entry): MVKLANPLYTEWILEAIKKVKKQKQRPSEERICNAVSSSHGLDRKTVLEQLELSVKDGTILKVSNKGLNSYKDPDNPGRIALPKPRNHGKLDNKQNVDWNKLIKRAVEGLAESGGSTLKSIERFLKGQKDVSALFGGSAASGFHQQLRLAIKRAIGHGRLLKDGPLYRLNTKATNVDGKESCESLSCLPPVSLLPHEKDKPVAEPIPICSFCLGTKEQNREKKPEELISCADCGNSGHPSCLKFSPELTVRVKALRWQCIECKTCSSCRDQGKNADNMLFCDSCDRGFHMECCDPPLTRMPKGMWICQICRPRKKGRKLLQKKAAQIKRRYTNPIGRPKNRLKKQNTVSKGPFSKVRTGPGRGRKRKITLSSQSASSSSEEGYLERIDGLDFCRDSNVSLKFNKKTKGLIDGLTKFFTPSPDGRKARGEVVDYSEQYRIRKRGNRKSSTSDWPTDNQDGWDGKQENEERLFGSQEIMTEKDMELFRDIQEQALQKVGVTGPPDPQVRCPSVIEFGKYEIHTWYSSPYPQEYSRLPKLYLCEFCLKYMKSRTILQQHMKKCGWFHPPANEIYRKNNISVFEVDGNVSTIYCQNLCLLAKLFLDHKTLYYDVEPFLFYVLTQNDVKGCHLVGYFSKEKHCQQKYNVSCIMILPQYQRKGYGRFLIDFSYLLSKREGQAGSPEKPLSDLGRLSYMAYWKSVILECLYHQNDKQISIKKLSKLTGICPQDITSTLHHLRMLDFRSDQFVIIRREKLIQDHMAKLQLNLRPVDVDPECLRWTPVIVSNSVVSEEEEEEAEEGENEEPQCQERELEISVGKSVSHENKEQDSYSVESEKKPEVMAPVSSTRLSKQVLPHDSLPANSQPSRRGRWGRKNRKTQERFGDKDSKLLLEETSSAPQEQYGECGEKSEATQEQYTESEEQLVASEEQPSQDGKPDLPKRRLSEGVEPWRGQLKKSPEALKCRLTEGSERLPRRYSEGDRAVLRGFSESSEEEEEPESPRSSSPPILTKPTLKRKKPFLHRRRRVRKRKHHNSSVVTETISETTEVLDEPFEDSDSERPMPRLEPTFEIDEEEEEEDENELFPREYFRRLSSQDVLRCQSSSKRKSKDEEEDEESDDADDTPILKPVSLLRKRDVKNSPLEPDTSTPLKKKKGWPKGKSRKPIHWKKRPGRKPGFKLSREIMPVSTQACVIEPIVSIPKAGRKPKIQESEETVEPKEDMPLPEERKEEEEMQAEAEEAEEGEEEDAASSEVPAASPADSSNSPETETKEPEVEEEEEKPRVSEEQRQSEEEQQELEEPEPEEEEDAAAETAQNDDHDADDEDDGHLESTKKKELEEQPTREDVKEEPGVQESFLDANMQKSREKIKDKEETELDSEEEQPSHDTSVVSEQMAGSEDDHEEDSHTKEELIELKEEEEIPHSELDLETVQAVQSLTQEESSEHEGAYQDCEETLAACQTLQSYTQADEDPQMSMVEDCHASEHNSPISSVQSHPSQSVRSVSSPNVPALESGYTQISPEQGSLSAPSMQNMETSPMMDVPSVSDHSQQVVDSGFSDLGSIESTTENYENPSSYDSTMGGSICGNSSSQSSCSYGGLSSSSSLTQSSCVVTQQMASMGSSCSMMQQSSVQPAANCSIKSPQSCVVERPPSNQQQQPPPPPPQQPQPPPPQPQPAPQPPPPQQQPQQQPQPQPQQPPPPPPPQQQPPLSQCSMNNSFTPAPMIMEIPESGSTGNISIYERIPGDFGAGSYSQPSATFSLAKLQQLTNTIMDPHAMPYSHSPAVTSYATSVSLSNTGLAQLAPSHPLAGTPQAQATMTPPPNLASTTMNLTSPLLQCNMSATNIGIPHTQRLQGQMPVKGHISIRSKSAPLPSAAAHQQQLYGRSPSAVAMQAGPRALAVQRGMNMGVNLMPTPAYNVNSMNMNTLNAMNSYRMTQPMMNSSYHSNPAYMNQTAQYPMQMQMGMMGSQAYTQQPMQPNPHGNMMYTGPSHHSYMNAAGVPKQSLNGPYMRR

Structure (SMILES)	anti-tumor activity in ER+ breast cancer (ER+ breast cancer)	ERα expression (ERα expression)	IC50 (human KAT6A) [nM]	IC50 (ZR-75-1; ZR-75-1 proliferation) [nM]	Emax (ZR-75-1; inhibition of ZR-75-1 proliferation, read-out: Maximum inhibition rate/Imax %) [%]	Vd/F ([1]; read-out: Apparent distribution volume Vz/F) [L/kg]	AUC(0-t) ([1]; read-out: Area under curve AUC0-t) [ng·h/mL]	CL/F ([1]; read-out: Clearance rate CL/F) [mL/min/kg]	half-life ([1]; read-out: Half-life T½ (converted)) [h]	Cmax ([1]; read-out: Plasma concentration Cmax) [ng/mL]
COc1cccc(OC)c1S(=O)(=O)Nc1noc2cc(Cn3cccn3)cc(OC)c12 [CTx-648]	shows anti-tumor activity	can down-regulate ERα expression	–	–	–	–	–	–	–	–
COc1cc2c(cc1S(=O)(=O)Nc1noc3cc(Cn4cccn4)c4c(c13)OCCC4)CCC2 [Compound 6, N-(5-((1H-pyrazol-1-yl)methyl)-3,4-dihydro-2H-chromeno[8,7-d]isoxazol-9-yl)-6-methoxy-2,3-dihydro-1H-indene-5-sulfonamide]	–	–	0.4	0.6	95.4	–	–	–	–	–
Cc1ccc(S(=O)(=O)Nc2noc3cc(Cn4cccn4)c4c(c23)OCC4)c(OCC(F)(F)F)c1 [Compound 21, N-(4-((1H-pyrazol-1-yl)methyl)-2,3-dihydrobenzofuro[7,6-d]isoxazol-8-yl)-4-methyl-2-(2,2,2-trifluoroethoxy)benzenesulfonamide]	–	–	4.6	–	–	0.496	43700	0.788	9.58	4310

From patent US20250145637A1, “SULFONAMIDE DERIVATIVE, PREPARATION METHOD THEREFOR AND MEDICAL USE THEREOF” (Jiangsu Hengrui Pharmaceuticals Co. Ltd., priority 2021, published 2025)
